Results published in US9701689B2, “Substituted pyridines and pyridazines as CCR10 receptor inhibitors” (KYOWA HAKKO KIRIN CO., LTD., priority 2012, dated 2017).

What was measured:
[1] = biological target: T1, human CCR10 (Homo sapiens, UniProt P46092); assay: CCR10 antagonistic effect: calcium assay of human CCR10 (CTACK-induced increase of intracellular calcium in hCCR10G16 cells); type: cell-based; conditions: at a concentration of not more than 1000 nmol/L; human CCR10-expressing hCCR10G16 cells, 300 nmol/L CTACK added; read-out: inhibition of increase in the calcium ion concentration
T1 construct: expressed in transfected cells; host or cells: KJMGER8 cells (Namalwa cell-derived line), beta-estradiol-induced; hCCR10G16 cells
T1 sequence (P46092 1-362): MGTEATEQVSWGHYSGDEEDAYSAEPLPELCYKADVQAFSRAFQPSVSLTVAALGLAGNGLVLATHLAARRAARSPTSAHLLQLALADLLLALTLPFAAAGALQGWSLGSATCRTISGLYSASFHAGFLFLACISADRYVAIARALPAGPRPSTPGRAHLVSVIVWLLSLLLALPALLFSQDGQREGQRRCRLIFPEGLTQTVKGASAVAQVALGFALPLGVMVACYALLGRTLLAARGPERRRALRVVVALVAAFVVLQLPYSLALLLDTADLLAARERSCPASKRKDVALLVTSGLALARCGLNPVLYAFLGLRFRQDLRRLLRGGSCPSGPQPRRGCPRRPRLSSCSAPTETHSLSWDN
Outline: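 Inhibition of CTACK-evoked calcium flux (max minus min Fluo-3 fluorescence over ~5 min, FDSS) was calculated against control in β-estradiol-induced human CCR10/Gα16 KJMGER8 cells, after 30 min compound preincubation at 37 °C; CTACK added from a 300 nmol/L solution.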

[2] = test system: Dinitrofluorobenzene-induced Auricle Edema Reaction in Mouse; assay: Suppressive action on dinitrofluorobenzene-induced auricle edema reaction in mouse; type: in vivo; conditions: BALB/c mice; for suppressive action on auricle edema response (in words): topical application in acetone, summary of Table 28; for inhibition in vivo at 1 %: test compound concentration 1% (w/v) in acetone
Method: [Experimental Example 2] Suppressive Action on Dinitrofluorobenzene-induced Auricle Edema Reaction in Mouse
BALB/c mice (female, supplied by CHARLES RIVER LABORATORIES JAPAN, INC.) were purchased at the age of 5 weeks. After quarantine and acclimation, mice showing smooth body weight increase and free of abnormality in appearance were used and the test was started at the age of 7 weeks. The mice were housed in a breeding room at room temperature 19-25° C., humidity 30-70%, 12 hr lighting per day (7 a.m.-7 p.m.) with 3 mice in each plastic gauge, and bred on with free ingestion of a commercially available solid feed and water.
Two days before the test, the abdomen of the BALB/c mice was shaved, and the mice were immunized by applying 100 μL of a solution {concentration 0.5% [weight (w)/volume (v) %]} of dinitrofluorobenzene (manufactured by Nacalai Tesque) in acetone (manufactured by Wako Pure Chemical Industries, Ltd.) to the shaved part. The reaction was induced by applying dinitrofluorobenzene-acetone solution [concentration 0.2% (w/v %)] to the front and the back of auricle (10 μL to each, total 20 μL) on day 5 after the immunization. A test compound dissolved in acetone at concentration of 0.1% or 1% (w/v %) was administered by applying same to the front and the back of auricle (10 μL to each, total 20 μL) 1 hr before and 3 hr after induction of the reaction. After application, the applied part was air-dried with a dryer.
The group applying administered with the test compound was taken as a test compound administration group, and the group applying administered with acetone as a solvent instead of the test compound was taken as a solvent administration group. Also, the group free of immunization and reaction induction but applying administered with acetone instead of the test compound was taken as a normal group. The thickness of auricle was measured using a dial thickness gauge (G-1A manufactured by OZAKI MFG. CO., LTD.) immediately before and 24 hr after induction of the reaction, and the difference thereof was taken as auricle edema. The suppression rate (%) of auricle edema was calculated according to the following formula.

[3] = Mus musculus, topical, applied to auricle 1 hr before and 3 hr after induction, measured 24 hr after induction, read-out: auricle edema suppression rate (%)

inhibition at up to 1 µM [1] [%]	SMILES	suppressive action on auricle edema response (in words) [2]	inhibition in vivo at 1 % [2, 3] [%]	inhibition in vivo at 0.1 % ([2]; Mus musculus, topical, test compound concentration 0.1% (w/v) in acetone, applied to auricle 1 hr before and 3 hr after induction, measured 24 hr after induction, read-out: auricle edema suppression rate (%)) [%]
≥ 50	Cc1cc(F)ccc1Nc1cc(S(=O)(=O)Nc2ccon2)ncc1C(=O)N1CCC(c2ccc(F)cc2)CC1 [Compound 11, 4-(4-fluoro-2-methylphenylamino)-5-[4-(4-fluorophenyl)piperidine-1-carbonyl]-N-(isoxazol-3-yl)pyridine-2-sulfonamide]	showed a suppressive action on auricle edema response	32	
≥ 50	Cc1cc(Cl)ccc1Nc1cc(S(=O)(=O)NC(=O)NC2CC2)ncc1C(=O)N1CCC(c2ccc(F)cc2)CC1 [Compound 21, 4-(4-chloro-2-methylphenylamino)-N-(cyclopropylcarbamoyl)-5-[4-(4-fluorophenyl)piperidine-1-carbonyl]pyridine-2-sulfonamide]	showed a suppressive action on auricle edema response		26
≥ 50	CCNC(=O)NS(=O)(=O)c1cc(Nc2ccc(F)cc2C)c(C(=O)N2CCC(c3ccc(F)cc3)CC2)cn1 [Compound 22, N-(ethylcarbamoyl)-4-(4-fluoro-2-methylphenylamino)-5-[4-(4-fluorophenyl)piperidine-1-carbonyl]pyridine-2-sulfonamide]	showed a suppressive action on auricle edema response	47	
≥ 50	Cc1cc(F)ccc1Nc1c(C(=O)N2CCC(c3ccc(F)cc3)CC2)cnc(S(N)(=O)=O)c1Cl [Compound 25, 3-chloro-4-(4-fluoro-2-methylphenylamino)-5-[4-(4-fluorophenyl)piperidine-1-carbonyl]pyridine-2-sulfonamide]	showed a suppressive action on auricle edema response	47	
≥ 50	NS(=O)(=O)c1ncc(C(=O)N2CCC(c3ccc(F)cc3)CC2)c(Nc2cccc(Cl)c2)c1Cl [Compound 176, 3-chloro-4-(3-chlorophenylamino)-5-[4-(4-fluorophenyl)piperidine-1-carbonyl]pyridine-2-sulfonamide]	showed a suppressive action on auricle edema response	42	
≥ 50	Cc1ccc(Cl)cc1Nc1c(C(=O)N2CCC(c3ccc(F)cc3)CC2)cnc(S(=O)(=O)Nc2ccon2)c1C [Compound 232, 4-(5-chloro-2-methylphenylamino)-5-[4-(4-fluorophenyl)piperidine-1-carbonyl]-N-(isoxazol-3-yl)-3-methylpyridine-2-sulfonamide]	showed a suppressive action on auricle edema response	39	
≥ 50	Cc1c(S(=O)(=O)Nc2ccon2)ncc(C(=O)N2CCC(c3ccc(F)cc3)CC2)c1Nc1cccc(F)c1 [Compound 233, 5-[4-(4-fluorophenyl)piperidine-1-carbonyl]-4-(3-fluorophenylamino)-N-(isoxazol-3-yl)-3-methylpyridine-2-sulfonamide]	showed a suppressive action on auricle edema response	24	
≥ 50	NS(=O)(=O)c1ncc(C(=O)N2CCC(c3ccc(F)cc3)CC2)c(Nc2cccc(Br)c2)c1Cl [Compound 319, 4-(3-bromophenylamino)-3-chloro-5-[4-(4-fluorophenyl)piperidine-1-carbonyl]pyridine-2-sulfonamide]			
≥ 50	Cc1cc(C#N)c(Nc2c(C(=O)N3CCC(c4ccc(F)cc4)CC3)cnc(S(N)(=O)=O)c2Cl)cc1C [Compound 320, 3-chloro-4-(2-cyano-4,5-dimethylphenylamino)-5-[4-(4-fluorophenyl)piperidine-1-carbonyl]pyridine-2-sulfonamide]			
≥ 50	COc1ccc(C#N)c(Nc2c(C(=O)N3CCC(c4ccc(F)cc4)CC3)cnc(S(N)(=O)=O)c2Cl)c1 [Compound 321, 3-chloro-4-(2-cyano-5-methoxyphenylamino)-5-[4-(4-fluorophenyl)piperidine-1-carbonyl]pyridine-2-sulfonamide]			
≥ 50	N#Cc1ccc([N+](=O)[O-])cc1Nc1c(C(=O)N2CCC(c3ccc(F)cc3)CC2)cnc(S(N)(=O)=O)c1Cl [Compound 322, 3-chloro-4-(2-cyano-5-nitrophenylamino)-5-[4-(4-fluorophenyl)piperidine-1-carbonyl]pyridine-2-sulfonamide]			
≥ 50	Cc1ccc(Cl)cc1Nc1c(C(=O)N2CCC3(CC2)COc2ccccc23)cnc(S(N)(=O)=O)c1Cl [Compound 323, 3-chloro-4-(5-chloro-2-methylphenylamino)-5-(2H-spiro[benzofuran-3,4′-piperidin]-1′-ylcarbonyl)pyridine-2-sulfonamide]			
≥ 50	COc1ccc(Cl)c(Nc2c(C(=O)N3CCC(c4ccc(F)cc4)CC3)cnc(S(N)(=O)=O)c2Cl)c1 [Compound 324, 3-chloro-4-(2-chloro-5-methoxyphenylamino)-5-[4-(4-fluorophenyl)piperidine-1-carbonyl]pyridine-2-sulfonamide]			
≥ 50	NS(=O)(=O)c1ncc(C(=O)N2CCC(c3ccc(F)cc3)CC2)c(Nc2cc(F)ccc2Cl)c1Cl [Compound 325, 3-chloro-4-(2-chloro-5-fluorophenylamino)-5-[4-(4-fluorophenyl)piperidine-1-carbonyl]pyridine-2-sulfonamide]			
≥ 50	Cc1cnc(C)c(Nc2c(C(=O)N3CCC(c4ccc(F)cc4)CC3)cnc(S(N)(=O)=O)c2Cl)c1 [Compound 326, 3-chloro-4-(2,5-dimethylpyridin-3-ylamino)-5-[4-(4-fluorophenyl)piperidine-1-carbonyl]pyridine-2-sulfonamide]			
≥ 50	NS(=O)(=O)c1ncc(C(=O)N2CCC(c3ccc(F)cc3)CC2)c(Nc2ccc(Cl)nc2Cl)c1Cl [Compound 327, 3-chloro-4-(2,6-dichloropyridin-3-ylamino)-5-[4-(4-fluorophenyl)piperidine-1-carbonyl]pyridine-2-sulfonamide]			
≥ 50	Cc1ccc(Nc2c(C(=O)N3CCC(c4ccc(F)cc4)CC3)cnc(S(N)(=O)=O)c2Cl)c(F)c1 [Compound 328, 3-chloro-4-(2-fluoro-4-methylphenylamino)-5-[4-(4-fluorophenyl)piperidine-1-carbonyl]pyridine-2-sulfonamide]			
≥ 50	Cc1cc(S(C)(=O)=O)ccc1Nc1c(C(=O)N2CCC(c3ccc(F)cc3)CC2)cnc(S(N)(=O)=O)c1Cl [Compound 329, 3-chloro-5-[4-(4-fluorophenyl)piperidine-1-carbonyl]-4-[2-methyl-4-(methylsulfonyl)phenylamino]pyridine-2-sulfonamide]			
≥ 50	NS(=O)(=O)c1ncc(C(=O)N2CC(c3ccc(F)cc3)C2)c(NC2(c3ccccc3)CC2)c1Cl [Compound 330, 3-chloro-5-[3-(4-fluorophenyl)azetidine-1-carbonyl]-4-(1-phenylcyclopropylamino)pyridine-2-sulfonamide]			
≥ 50	Cc1ccccc1Nc1c(C(=O)N2CCC(c3ccc(F)cc3)CC2)cnc(S(N)(=O)=O)c1C [Compound 331, 5-[4-(4-fluorophenyl)piperidine-1-carbonyl]-3-methyl-4-(o-tolylamino)pyridine-2-sulfonamide]			
